According to US4605654A, “2-(arylalkyloxymethyl)morpholines and the central nervous system compositions” (P. F. Medicament, priority 1984, dated 1986):
Where a name gives a salt, the structure may show the parent alone. Read-outs that look alike come from different tables or passages of the source.

How the values were obtained:
[1] = test system: 5-HTP (5-hydroxytryptophan); assay: 5-HTP (5-hydroxytryptophan) potentiation test (Christensen et al.): head movements and tremors; format: in vivo, mice; conditions: for activity in the 5-HTP potentiation test: in words; for ED50: Mus musculus, 0.25 h
Description: The mice receive an intravenous injection of 5-HTP (100 mg/10 ml/kg) after oral administration of the compounds to be studied (25 ml/kg). Fifteen minutes after the injection of 5-HTP, the presence and intensity of head movements and tremors are noted.

nociceptive reactions = assay: Heating-plate test, analgesic activity (WOOLFE and MacDONALD); format: in vivo; conditions: mouse, oral, 100 mg/kg; 30 min; plate 65° C.
Description: The products to be tested are administered to the mouse orally. 30 minutes later, the mice are placed on a plate brought to 65° C. The nociceptive reactions are assessed objectively in terms of the licking of the forepaws. The time for this response to appear is noted.
The method of calculation used is that described by HARRIS L. S. and PIERSON A. K. (1964, J. Pharmacol. Exp. Ther., 143, 141-148).

physchem = conditions: water
[2] = mice, oral, 5-HTP i.v. 100 mg/10 ml/kg, observed 15 min after 5-HTP, read-out: ED50

With “2-[(3-Phenylpropyloxy)methyl]morpholine hydrogen oxalate [Example 16]” the “activity in the 5-HTP potentiation test” value ([1]; mice, oral) was “activity”.

`Nc1ccc(COCC2CNCCO2)cc1` (stereo not drawn) [Example 44, 2-[(4-Aminobenzyloxy)methyl]morpholine dihydrogen succinate] showed a solubility (Solubility in water) of 60 mg/mL.

Compound `Clc1ccc(COCC2CNCCO2)cc1` (stereo not drawn) [Example 10, 2-[(4-Chlorobenzyloxy)methyl]morpholine hydrogen maleate] has a solubility (Solubility in water) of 60 mg/mL.

Work on `COc1ccc(COCC2CNCCO2)cc1` (stereo not drawn) [Example 4, 2-[(4-methoxybenzyloxy)methyl]morpholine hydrogen oxalate] yielded a solubility (Solubility in water) of 40 mg/mL.

With `CCOc1ccccc1COCC1CNCCO1` (stereo not drawn) [Example 11, 2-[(2-Ethoxybenzyloxy)methyl]morpholine hydrogen maleate] the “PERCENTAGE ANALGESIA” value (nociceptive reactions) was 16%, the ED50 [1, 2] was 15 mg/kg and the “activity in the 5-HTP potentiation test” value ([1]; mice, oral) was “activity”. The solubility (Solubility in water) was 30 mg/mL.

`Oc1cccc(COCC2CNCCO2)c1` (stereo not drawn) [Example 43, 2-[(3-Hydroxybenzyloxy)methyl]morpholine hydrogen oxalate] gave a solubility (Solubility in water) of 100 mg/mL.

In the case of `Cc1ccc(COCC2CNCCO2)cc1` (stereo not drawn) [Example 7, 2-[(4-Methylbenzyloxy)methyl]morpholine hydrogen oxalate], the solubility (Solubility in water) is reported as 20 mg/mL.

`c1ccc2nc(N3CCNCC3)ccc2c1` [Quipazine, reference compound] gave an ED50 ([1]; po) of 15 mg/kg.

Work on `c1ccc(COc2ccc(COCC3CNCCO3)cc2)cc1` (stereo not drawn) [Example 42b, 2-[4-Benzyloxybenzyloxy)methyl]morpholine hydrogen oxalate] yielded a solubility (Solubility in water) of 10 mg/mL.

For `Clc1ccc(COCC2CNCCO2)cc1Cl` (stereo not drawn) [Example 13, 2-[(3,4-Dichlorobenzyloxy)methyl]morpholine hydrogen maleate], the solubility (Solubility in water) was 10 mg/mL.

For `Clc1cccc(Cl)c1COCC1CNCCO1` (stereo not drawn) [Example 14, 2-[(2,6-Dichlorobenzyloxy)methyl]morpholine hydrogen maleate], the “PERCENTAGE ANALGESIA” value (nociceptive reactions) was 23%, the ED50 [1, 2] was 18 mg/kg and the solubility (Solubility in water) was 50 mg/mL.

In the case of `Cc1ccccc1COCC1CNCCO1` (stereo not drawn) [Example 5, 2-[(2-Methylbenzyloxy)methyl]morpholine hydrogen maleate], the “PERCENTAGE ANALGESIA” value (nociceptive reactions) is reported as 20%, the ED50 [1, 2] is reported as 16 mg/kg and the “activity in the 5-HTP potentiation test” value ([1]; mice, oral) is reported as “activity”.

In the case of `c1ccc(COCC2CNCCO2)cc1` (stereo not drawn) [Example 1, 2-(benzyloxymethyl)morpholine hydrogen maleate], the solubility (Solubility in water) is reported as 100 mg/mL.

For `Clc1cccc(COCC2CNCCO2)c1` (stereo not drawn) [Example 9, 2-[(3-Chlorobenzyloxy)methyl]morpholine hydrogen maleate], the “PERCENTAGE ANALGESIA” value (nociceptive reactions) was 16%, the ED50 [1, 2] was 15 mg/kg and the “activity in the 5-HTP potentiation test” value ([1]; mice, oral) was “activity”. It also gave a solubility (Solubility in water) of 20 mg/mL.

In the case of `CCC(=O)O[C@](Cc1ccccc1)(c1ccccc1)[C@H](C)CN(C)C` [Dextropropoxyphene, reference compound], the “PERCENTAGE ANALGESIA” value (nociceptive reactions) is reported as 15%.

In the case of `c1ccc2c(c1)OCC(COCC1CNCCO1)O2` (stereo not drawn) [Example 17, 2-{[(1,4-Benzodioxan-2-yl)methoxy]methyl}morpholine hydrogen maleate], the solubility (Solubility in water) is reported as 100 mg/mL.

`CC(OCC1CNCCO1)c1ccccc1` (stereo not drawn) [Example 37, 2-[(1-Phenylethyloxy)methylmorpholine hydrogen oxalate] gave a solubility (Solubility in water) of 50 mg/mL.

For `Clc1ccccc1COCC1CNCCO1` (stereo not drawn) [Example 8, 2-[(2-Chlorobenzyloxy)methyl]morpholine hydrogen maleate], the ED50 [1, 2] was 15 mg/kg, the “activity in the 5-HTP potentiation test” value ([1]; mice, oral) was “activity” and the solubility (Solubility in water) was 20 mg/mL.

In the case of `Nc1cccc(COCC2CNCCO2)c1.O=C(O)CCC(=O)O` (stereo not drawn) [Example 45, 2-[(3-Aminobenzyloxy)methyl]morpholine dihydrogen succinate], the solubility (physchem) is reported as 120 mg/mL.

`Fc1cccc(Cl)c1COCC1CNCCO1` (stereo not drawn) [Example 15, 2-[(2-Fluoro-6-chlorobenzyloxy)methyl]morpholine hydrogen maleate] gave a solubility (Solubility in water) of 30 mg/mL.

With `Cc1cccc(COCC2CNCCO2)c1` (stereo not drawn) [Example 6, 2-[(3-Methylbenzyloxy)methyl]morpholine hydrogen maleate] the solubility (Solubility in water) was 30 mg/mL.

`COc1ccccc1COCC1CNCCO1` (stereo not drawn) [Example 2, 2-[(2-Methoxybenzyloxy)methyl]morpholine hydrogen fumarate] gave a solubility (Solubility in water) of 50 mg/mL.

In the case of `COc1cccc(COCC2CNCCO2)c1` (stereo not drawn) [Example 3, 2-[(3-Methoxybenzyloxy)methyl]morpholine hydrogen maleate], the ED50 [1, 2] is reported as 10 mg/kg, the “activity in the 5-HTP potentiation test” value ([1]; mice, oral) is reported as “activity” and the solubility (Solubility in water) is reported as 10 mg/mL.

`O=C(O)C(=O)O.Oc1ccc(COCC2CNCCO2)cc1` (stereo not drawn) [Example 42, 2-[(4-Hydroxybenzyloxy)methyl]morpholine hydrogen oxalate] gave a solubility (physchem) of 200 mg/mL.

`Clc1ccc(COCC2CNCCO2)c(Cl)c1` (stereo not drawn) [Example 12, 2-[(2,4-Dichlorobenzyloxy)methyl]morpholine hydrogen maleate] gave a solubility (Solubility in water) of 40 mg/mL.
